Values quoted from earlier work in publication PMC10715210, “Colistin plasma concentrations are not associated with better clinical outcomes in patients with pneumonia caused by extremely drug-resistant Pseudomonas aeruginosa” (Microbiology Spectrum, 2023).
Positions of bridges follow the written chain, without caps; N, C: chain ends. Non-standard residues stand in square brackets, D forms with d. Residues, ends and D or L forms follow the SMILES beside them. *: point of attachment. X1 = CC[C@H](C)CCCCC(=O)*; Dab = NCC[C@H](N)C(=O)O

Settings: samples drawn at 45 min after the start of infusion; loading dose 9 million IU CMS then 4.5 million IU every 12 hours; cited from earlier work
Description: ([10]). […] Concentrations of CMS and formed colistin in plasma were measured as reported previously ([35], [36]). The limits of quantification for colistin and CMS in plasma were 0.20 and 0.50 mg/L, respectively. Based on the almost flat plasma concentration-time profiles of formed colistin at st ...

Question: Which Colistin plasma concentration does the source give for `CC[C@H](C)CCCCC(=O)N[C@@H](CCN)C(=O)N[C@H](C(=O)N[C@@H](CCN)C(=O)N[C@H]1CCNC(=O)[C@H]([C@@H](C)O)NC(=O)[C@H](CCN)NC(=O)[C@H](CCN)NC(=O)[C@H](CC(C)C)NC(=O)[C@@H](CC(C)C)NC(=O)[C@H](CCN)NC1=O)[C@@H](C)O` [colistin] (X1-[Dab]T[Dab][Dab][Dab][dL]L[Dab][Dab]T; lactam 4-C) here?
Answer: The Colistin plasma concentration was 0.44 (0.14–1.59) mg/L.
